The text below walks through data of article PMC8311653, “Design, Synthesis, In Vitro and In Vivo Characterization of Selective NKCC1 Inhibitors for the Treatment of Core Symptoms in Down Syndrome” (Journal of Medicinal Chemistry, 2021).

Series [1] in a line: In vitro metabolic stability in mouse liver microsomes. The conditions noted are these: tissue homogenate, pH 7.4. Here is the method:
1. Aqueous kinetic solubility. […]
3. In vitro mouse microsomial stability. […]
microsomes (Sekisui Xenotech, LCC), 0.1M Tris-HCl buffer (pH 7.4), and 10% DMSO. The final […]
After pre-incubation, the cofactors (NADPH, G6P, G6PDH, MgCl2 pre-dissolved in 0.1M Tris-HCl) were added to the incubation mixture and the incubation was continued at 37 °C for 1h. At each time point (0, 5, 15, 30, 60 min), 30µL of incubation mixture was diluted with 200 µL cold acetonitile spiked with 200 nM of warfarin as internal standard, followed by centrifugation at 3500 g for 30 min. The supernatant was further diluted with H2O (1:1) for analysis.
An aliquot of 200 µl of the supernatant was removed, and the concentration of the test compound was […]
quantified by LC-MS/MS. The percentage of the test compound remaining at each time point relative […]
to t=0 was calculated. The half-lives (t½) were determined by a one-phase decay equation using a […]
non-linear regression of compound concentration vs time.
(In general: Microsomes from liver hold many membrane-bound enzymes, among them those of drug oxidation.)

In another series the target is T1, NKCC1 (Homo sapiens, UniProt P55011).
T1 construct: host or cells: HEK293
T1 sequence (P55011 1-1212): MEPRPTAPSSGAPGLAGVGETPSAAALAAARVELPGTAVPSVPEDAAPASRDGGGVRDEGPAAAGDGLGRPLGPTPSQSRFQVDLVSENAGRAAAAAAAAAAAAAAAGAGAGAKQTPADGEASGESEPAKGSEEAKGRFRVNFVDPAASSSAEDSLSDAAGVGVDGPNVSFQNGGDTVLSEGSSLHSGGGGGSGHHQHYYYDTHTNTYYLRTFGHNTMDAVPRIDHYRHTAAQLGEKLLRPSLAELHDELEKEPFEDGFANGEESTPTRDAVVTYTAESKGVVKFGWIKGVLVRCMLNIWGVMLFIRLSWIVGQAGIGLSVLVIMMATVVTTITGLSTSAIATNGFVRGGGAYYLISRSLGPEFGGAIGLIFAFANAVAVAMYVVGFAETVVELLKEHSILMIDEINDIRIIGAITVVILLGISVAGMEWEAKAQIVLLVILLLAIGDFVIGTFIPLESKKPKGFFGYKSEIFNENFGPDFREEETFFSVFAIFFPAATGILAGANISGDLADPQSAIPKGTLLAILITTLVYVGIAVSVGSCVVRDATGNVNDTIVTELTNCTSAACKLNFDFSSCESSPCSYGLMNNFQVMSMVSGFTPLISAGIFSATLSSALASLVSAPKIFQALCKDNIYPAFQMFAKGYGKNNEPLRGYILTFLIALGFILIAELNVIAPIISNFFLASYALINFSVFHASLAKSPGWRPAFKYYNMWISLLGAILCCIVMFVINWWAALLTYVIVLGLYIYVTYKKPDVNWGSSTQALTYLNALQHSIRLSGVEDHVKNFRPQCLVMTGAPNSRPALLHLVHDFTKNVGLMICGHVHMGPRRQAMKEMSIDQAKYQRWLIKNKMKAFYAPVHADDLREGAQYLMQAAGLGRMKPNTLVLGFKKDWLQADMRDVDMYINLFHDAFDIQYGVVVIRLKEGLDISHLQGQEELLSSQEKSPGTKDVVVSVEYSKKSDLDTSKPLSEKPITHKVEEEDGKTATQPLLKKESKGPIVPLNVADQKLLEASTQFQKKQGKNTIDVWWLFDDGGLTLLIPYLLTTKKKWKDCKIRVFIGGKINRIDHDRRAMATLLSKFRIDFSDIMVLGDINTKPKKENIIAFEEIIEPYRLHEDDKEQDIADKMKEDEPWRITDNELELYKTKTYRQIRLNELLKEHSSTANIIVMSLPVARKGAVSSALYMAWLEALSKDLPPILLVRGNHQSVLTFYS
As to the kind of experiment: Cl- influx assay in NKCC1-transfected HEK293 cells. The class given is cell-based. The settings on record: for inhibition at 10 µM: HEK293, read-out: Inhibition 10 μM Cl- influx (%); for inhibition at 100 µM: HEK293, read-out: Inhibition 100 μM Cl- influx (%); for Inhibition 10 μM Cl- influx (%) / Inhibition 100 μM Cl- influx (%): NKCC1-transfected HEK293 cells. The protocol: HEK293 cells were cultured in Dulbecco’s modified Eagle’s medium (DMEM) supplemented with 10% fetal bovine serum, 1% L-glutamine, 100 U/mL penicillin, and 100 μg/mL streptomycin and maintained at 37 °C in a 5% CO2 humidified atmosphere. To assess NKCC1 and NKCC2 activity (Cl^– influx assay), 3 million HEK cells were plated in a 10 cm cell-culture dish and transfected with a transfection mixture comprising 5 mL of DMEM, 4 mL of Opti-MEM, 8 μg of DNA plasmid coding for NKCC1 (PRK-NKCC1 obtained from Medical Research Council and the University of Dundee), NKCC2 (OriGene plasmid #RC216145) subcloned in PRK5 plasmid, or mock control (empty vector), together with 8 μg of a plasmid coding for the Cl^–-sensitive variant of the membrane-targeted fluorescent protein YFP, mbYFPQS (Addgene plasmid #80742),[53] and 32 μL of Lipofectamin 2000. To assess KCC2 activity (Tl influx assay), cells were transfected with 8 μg of KCC2[54] subcloned in the PRK5 plasmid or mock control (empty vector) and 16 μL of Lipofectamin 2000. After 4 h, the cells were collected and plated in 96-well black-walled, clear-bottomed plates at a density of 2.5 × 10^4. After 48 h, cells were used for the Cl^– or Tl influx assays. All reagents were purchased from Life Technologies, unless otherwise specified.
Transfected cells were treated with 10 μM or 100 μM bumetanide (as positive controls), DMSO (as the negative control), or with each of our compounds in 100 μL/well of a Cl^–-free hypotonic solution (67.5 mM Na^+ gluconate, 2.5 mM K^+ gluconate, 15 mM HEPES pH 7.4, 50 mM glucose, 1 mM Na2HPO4, 1 mM NaH2PO4, 1 mM MgSO4, and 1 mM CaSO4). After 30 min of incubation, plates were loaded into a Victor 3V (PerkinElmer) multiplate reader equipped with an automatic liquid injector system, and fluorescence of Cl^–-sensitive mbYFPQS was recorded with excitation at 485 nm and emission at 535 nm. For each well, fluorescence was first recorded for 20 s of the baseline and for 60 s after delivery of a NaCl concentrated solution (74 mM final concentration in the assay well). Fluorescence of Cl^–-sensitive mbYFPQS is inversely correlated to the intracellular Cl^– concentration;[53] therefore, chloride influx into the cells determined a decrease in mbYFPQS fluorescence. To represent the fluorescent traces in time, we normalized the fluorescence value for each time point to the average of the fluorescence value of the first 20 s of the baseline (ΔF/F0). To quantify the average effects as represented by the bar plots, we expressed the decrease in fluorescence upon NaCl application as the average of the last 10 s of ΔF/F0 normalized traces. Moreover, for each experiment, to account for the contribution of Cl^– changes that were dependent on transporters/exchangers other than NKCC1 or NKCC2, we subtracted the value of the last 10 s of ΔF/F0 normalized traces obtained from mock-transfected cells (either control or treated) from the respective ΔF/F0 value obtained from the cells transfected with NKCC1 or NKCC2. We then presented in the figures all the data as a percentage of the fluorescence decrease versus the value of the control DMSO.

Series [2] is described as follows: Aqueous kinetic solubility in PBS pH 7.4. The class given is physicochemical. The settings on record: phosphate buffered saline (PBS); aqueous kinetic solubility from 10 mM DMSO solution in PBS pH 7.4; target concentration 250 μM (final DMSO 2.5%). Here is the method: 1. Aqueous kinetic solubility.
30 µL aliquots of 10 mM DMSO stock solution of the test compound were incubated in Phosphate
Buffered Saline (PBS) at pH 7.4 at 25°C for 24h. After centrifugation the dissolved compound in the
supernatant was quantified by LC-MS/MS.
Aqueous kinetic solubility was determined by UV quantification at
215 nm. […]

≈ marks a conversion by molar mass, not a printed value.

For the compound `CCCCCCCCNc1ccc([N+](=O)[O-])cc1S(N)(=O)=O` [Compound 7, 5-Nitro-2-(octylamino)benzenesulfonamide], in series [1], the half-life at 5 μM was below 5 min. Besides, on NKCC1, the inhibition at 10 µM is 0.3 ± 2.9% and the inhibition at 100 µM was found to be 5.8 ± 6.8%. Further, the solubility at 24 h in series [2] was below 1 µM.

For `CCCCCCNc1ccc([N+](=O)[O-])cc1S(=O)(=O)N(C)C` [Compound 12, 2-(Hexylamino)-N,N-dimethyl-5-nitro-benzenesulfonamide], in series [1], the half-life at 5 μM was below 5 min. Besides, on NKCC1, the “Inhibition 10 μM Cl- influx (%)” value is given as “Inactive” and the inhibition at 100 µM stood at 4.9 ± 6.8%. This compound also returned a solubility at 24 h in series [2] of 1 µM (≈ 0.329 µg/mL).

In series [1], `CCCCCCNc1ccc(C(=O)O)cc1S(N)(=O)=O` [Compound 16, 4-(Hexylamino)-3-sulfamoyl-benzoic Acid] registered a half-life at 5 μM above 60 min. Besides, on NKCC1, the “Inhibition 10 μM Cl- influx (%)” value was “Inactive” and the inhibition at 100 µM came to 4.9 ± 3.7%. This compound had a solubility at 24 h in series [2] of 238 µM (≈ 71.5 µg/mL).

For the compound `CCCCCCCCNc1ccc(C(=O)O)cc1S(N)(=O)=O` [Compound 17, 4-(Octylamino)-3-sulfamoyl-benzoic Acid], the half-life at 5 μM in series [1] was determined as 18 min. Also, on NKCC1, the “Inhibition 10 μM Cl- influx (%)” value was “Inactive” and the inhibition at 100 µM was found to be 24 ± 8.5%. Moreover, the solubility at 24 h in series [2] was above 250 µM.

Take `CCCCCCNc1ccc(C(=O)O)cc1S(=O)(=O)NC` [Compound 20, 4-(Hexylamino)-3-(methylsulfamoyl)benzoic Acid]: in series [1], the half-life at 5 μM is 29 min. On NKCC1, the “Inhibition 10 μM Cl- influx (%)” value is listed as “Inactive” and the “Inhibition 100 μM Cl- influx (%)” value was “Inactive”. In series [2], the solubility at 24 h worked out at 247 µM (≈ 77.7 µg/mL).

Regarding `CCCCCCCCNc1ccc(C(=O)O)cc1S(=O)(=O)NC` [Compound 21, 3-(-N-Methylsulfamoyl)-4-(octylamino)benzoic Acid], the half-life at 5 μM in series [1] came to 12 min. For the same compound, on NKCC1, the inhibition at 10 µM was found to be 16.2 ± 4.8% and the inhibition at 100 µM stood at 20.1 ± 14.7%. In series [2], this compound registered a solubility at 24 h of 53 µM (≈ 18.2 µg/mL).

Regarding `CCCCCCNc1ccc(C(=O)O)cc1S(=O)(=O)N(C)C` [Compound 24, 3-(-N,N-Dimethylsulfamoyl)-4-(hexylamino)benzoic Acid], the half-life at 5 μM in series [1] came out at 17 min. Also, on NKCC1, the “Inhibition 10 μM Cl- influx (%)” value was “Inactive” and the inhibition at 100 µM came to 19.8 ± 5.2%. Further, the concentration in solution in series [2] (solubility at 24 h) was 243 µM (≈ 79.8 µg/mL).

On to `CCCCCCCCNc1ccc(C(=O)O)cc1S(=O)(=O)N(C)C` [Compound 25, 3-(-N,N-Dimethylsulfamoyl)-4-(octylamino)benzoic Acid], for which the half-life at 5 μM in series [1] turned out to be 13 min. In addition, at NKCC1, the “Inhibition 10 μM Cl- influx (%)” value is on record as “Inactive” and the inhibition at 100 µM stood at 70.6 ± 9.2%. For the same compound, the solubility at 24 h in series [2] turned out to be 52 µM (≈ 18.5 µg/mL).

In turn, `CN(C)S(=O)(=O)c1cc(C(=O)O)ccc1NCCC(C)(C)C` [Compound 26, 4-(-N-3,3-Dimethylbutylamino)-3-(dimethylsulfamoyl)benzoic Acid] had a half-life at 5 μM in series [1] above 60 min. For the same compound, on NKCC1, the “Inhibition 10 μM Cl- influx (%)” value is “Inactive” and the “Inhibition 100 μM Cl- influx (%)” value was “Inactive”. This compound also returned a solubility at 24 h in series [2] above 250 µM.

Compound `CN(C)S(=O)(=O)c1cc(C(=O)O)ccc1NCCCC(F)(F)F` [Compound 27, 3-(-N,N-Dimethylsulfamoyl)-4-(4,4,4-trifluorobutylamino)benzoic Acid] returned a half-life at 5 μM in series [1] above 60 min. For the same compound, on NKCC1, the “Inhibition 10 μM Cl- influx (%)” value is “Inactive” and the inhibition at 100 µM was found to be 1.9 ± 5%. In series [2], the concentration in solution (solubility at 24 h) came to 245 µM (≈ 86.8 µg/mL).

In turn, `CN(C)S(=O)(=O)c1cc(C(=O)O)ccc1NCCCCCC(F)(F)F` [Compound 28, 3-(-N,N-Dimethylsulfamoyl)-4-(6,6,6-trifluorohexylamino)benzoic Acid] had a half-life at 5 μM in series [1] above 60 min. Besides, on NKCC1, the “Inhibition 10 μM Cl- influx (%)” value is “Inactive” and the inhibition at 100 µM came out at 12.6 ± 4.1%. In series [2], this compound returned a solubility at 24 h of 249 µM (≈ 95.2 µg/mL).

`COCCNc1ccc(C(=O)O)cc1S(=O)(=O)N(C)C` [Compound 29, 3-(-N,N-Dimethylsulfamoyl)-4-(2-methoxyethylamino)benzoic Acid] returned a half-life at 5 μM in series [1] above 60 min. For the same compound, on NKCC1, the inhibition at 10 µM was determined as 1.4 ± 2.7% and the inhibition at 100 µM stood at 4.1 ± 5%. The same compound had a solubility at 24 h in series [2] of 237 µM (≈ 71.7 µg/mL).

Compound `COCCCCNc1ccc(C(=O)O)cc1S(=O)(=O)N(C)C` [Compound 30, 3-(-N,N-Dimethylsulfamoyl)-4-(4-methoxybutylamino)benzoic Acid] returned a half-life at 5 μM in series [1] above 60 min. Moreover, at NKCC1, the “Inhibition 10 μM Cl- influx (%)” value is “Inactive” and the inhibition at 100 µM was 5.2 ± 3.7%. In series [2], the solubility at 24 h is 247 µM (≈ 81.6 µg/mL).

Usually half-life stands for how long it takes for the measured level to halve. Lower therefore signals fast loss. As a reminder, the inhibition is the change of the read-out against control, counted positive when it falls. Usually solubility stands for the dissolved amount per volume that the medium holds. A low value points to little dissolved substance.
